Assay results: patent publication US20230183237A1, “COMPETITIVE AND NONCOMPETITIVE INHIBITORS OF THE MUSCARINIC ACETYLCHOLINE RECEPTOR M5” (Vanderbilt University, priority 2020, published 2023)
pIC50: −log10 of the molar value.

biological target: T1, hM5 (Homo sapiens, UniProt P08912); experiment: Calcium mobilization concentration-response (IC50 vs EC80 acetylcholine), CHO hM5; assay type: cell-based; settings: CELL LINE hM5; calcium mobilization, EC80 acetylcholine addition; read-out: IC50
T1 construct: expressed in transfected cells
T1 sequence (P08912 1-532): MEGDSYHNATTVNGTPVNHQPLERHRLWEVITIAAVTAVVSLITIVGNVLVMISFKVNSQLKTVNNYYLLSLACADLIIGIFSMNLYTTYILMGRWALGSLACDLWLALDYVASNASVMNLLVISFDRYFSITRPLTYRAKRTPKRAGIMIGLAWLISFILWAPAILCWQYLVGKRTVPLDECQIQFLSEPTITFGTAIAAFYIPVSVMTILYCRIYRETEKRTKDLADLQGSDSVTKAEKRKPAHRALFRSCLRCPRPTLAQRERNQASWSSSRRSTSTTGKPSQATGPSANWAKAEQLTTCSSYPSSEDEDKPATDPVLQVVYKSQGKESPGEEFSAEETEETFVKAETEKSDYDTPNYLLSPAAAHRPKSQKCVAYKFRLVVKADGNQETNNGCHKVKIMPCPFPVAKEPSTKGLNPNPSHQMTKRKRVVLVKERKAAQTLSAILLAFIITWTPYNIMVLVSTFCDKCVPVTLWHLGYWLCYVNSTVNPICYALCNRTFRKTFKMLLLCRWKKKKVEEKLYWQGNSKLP
Procedure: Initial, single point (10 μM) compound characterization was performed in stable Chinese Hamster Ovary (CHO) cell lines constitutively expressing human M5 receptors. These were plated at 15,000 cells per 20 μL per well in Greiner 384-well black-walled, TC-treated, clear-bottomed plates (Fisher) in Ham's F12 medium supplemented with 10% FBS and 20 mM HEPES. Cells were incubated overnight at 37° C. under 5% CO2. The following day, medium was exchanged with assay buffer (Hank's Balanced Salt Solution supplemented with 20 mM HEPES and 2.5 mM Probenecid, pH 7.4) leaving 20 μL of assay buffer in each well. […] The cells were then incubated 50 minutes at 37° C. under 5% CO2. The assay buffer plus dye was then exchanged with fresh assay buffer leaving a volume of 20 μL in each well. Test compounds were diluted into assay buffer to a 2X (20 μM) concentration in 0.2% dimethylsulfoxide (DMSO) in columns 3-22 with matching DMSO concentration in columns 1, 2, 23, and […]; compounds were added to the assay for a final concentration of 10 μM and a final DMSO concentration of 0.1%.
Either an FDSS (Hamamatsu) or Panoptic (WaveFront Biosciences) kinetic imaging plate reader was used for assay execution and measurement of calcium flux. After establishing baseline fluorescence, test compounds (20 μL) were added to the cells using the reader's integrated pipettor and allowed to equilibrate for 140 seconds before addition of the […] concentration of acetylcholine (10 μL) along with vehicle in selected DMSO-only wells in the outer two columns . […] The raw fluorescence data from each well was normalized to the corresponding initial fluorescence reading (static ratio). The maximum fluorescence value following each addition was determined and the minimum value within that same timeframe was subtracted for each well then normalized to the average of the ECffiax maximum-minimum response, providing a % AChmax value for each addition for each well. The single point values represent mean values determined within the ECsu addition timeframe obtained from at least three independent determinations performed in triplicate or greater (error bars represent +/−SEM) unless otherwise specified.
CHO cells stably expressing hM1, hM2/Gqi5, hM3, hM4/Gqi5, hM5, rM1/Gqi5, rM3, rM4/Gqi5, or rM5 were plated in the manner described above. […] FDSS protocols were carried out as described above; the static ratio was calculated and the minimum response subtracted from the maximum response within the timeframe of each addition. This max-min response was then normalized to the maximum acetylcholine response. Calculation of IC50 was performed using the percent maximum acetylcholine response for the EC80 addition through the Vortex and Studies modules of the Dotmatics data management software. Results are stored in the Dotrnatics database and an audit trail of any changes to their analysis is generated. Data shown represent mean values obtained from at least three independent determinations performed in triplicate or greater (error bars represent±SEM) unless otherwise specified.

SMILES | pIC50
Cc1cc2ncnn2cc1[C@@H]1CCN(S(=O)(=O)c2cn(C)nc2C)C[C@H]1F (racemic) [Compound 172, (rac)-6-(trans-1-((1,3-dimethyl-1H-pyrazol-4-yl)sulfonyl)-3-fluoropiperidin-4-yl)-7-methyl-[1,2,4]triazolo[1,5-a]pyridine] | 6.56
Cc1sc(C(N)=O)nc1C1=CCN(S(=O)(=O)c2ccc3c(c2)CCO3)CC1 [Compound 203, 4-(1-((2,3-dihydrobenzofuran-5-yl)sulfonyl)-1,2,3,6-tetrahydropyridin-4-yl)-5-methylthiazole-2-carboxamide] | < 5.00
[2H]C1([2H])Oc2ccc(S(=O)(=O)N3CCC(c4cn5nc(C)nc5cc4C)CC3)cc2C1([2H])[2H] [Compound 91, 6-(1-((2,3-dihydrobenzofuran-5-yl-2,2,3,3-d4)sulfonyl)piperidin-4-yl)-2,7-dimethyl-[1,2,4]triazolo[1,5-a]pyridine] | < 5.00
Cc1c(C2CCN(S(=O)(=O)c3cnn4c3CCC4)CC2)cn2ncnc2c1F [Compound 268, 6-(1-((5,6-dihydro-4H-pyrrolo[1,2-b]pyrazol-3-yl)sulfonyl)piperidin-4-yl)-8-fluoro-7-methyl-[1,2,4]triazolo[1,5-a]pyridine] | 7.85
Cc1cc2nccn2nc1C1CCN(S(=O)(=O)c2ccc(Cl)s2)CC1 [Compound 37, 6-(1-((5-chlorothiophen-2-yl)sulfonyl)piperidin-4-yl)-7-methylimidazo[1,2-b]pyridazine] | < 5.00
[2H]C1([2H])Oc2ccc(S(=O)(=O)N3CCC(c4cn5ncnc5cc4OC)CC3)cc2C1([2H])[2H] [Compound 92, 6-(1-((2,3-dihydrobenzofuran-5-yl-2,2,3,3-d4)sulfonyl)piperidin-4-yl)-7-methoxy-[1,2,4]triazolo[1,5-a]pyridine] | < 5.00
Cc1cc(C#N)ncc1C1=CCN(S(=O)(=O)c2cnn(C)c2C)CC1 [Compound 239, 1′-((1,5-dimethyl-1H-pyrazol-4-yl)sulfonyl)-4-methyl-1′,2′,3′,6′-tetrahydro-[3,4′-bipyridine]-6-carbonitrile] | < 5.00
CCc1cc2ncnn2cc1C1=CCN(S(=O)(=O)c2cnn(C)c2C)CC1 [Compound 194, 6-(1-((1,5-dimethyl-1H-pyrazol-4-yl)sulfonyl)-1,2,3,6-tetrahydropyridin-4-yl)-7-ethyl-[1,2,4]triazolo[1,5-a]pyridine] | 7.26
Cc1cc2ncnn2nc1C1=CCN(S(=O)(=O)c2ccc3c(c2)CCO3)CC1 [Compound 167, 6-(1-((2,3-dihydrobenzofuran-5-yl)sulfonyl)-1,2,3,6-tetrahydropyridin-4-yl)-7-methyl-[1,2,4]triazolo[1,5-b]pyridazine] | < 5.00
Cc1cc2nccn2cc1C1CCN(S(=O)(=O)c2cc3c(cc2F)OCC3)CC1 [Compound 67, 6-(1-((6-fluoro-2,3-dihydrobenzofuran-5-yl)sulfonyl)piperidin-4-yl)-7-methylimidazo[1,2-a]pyridine] | 5.59
O=S(=O)(c1ccc2c(c1)CCO2)N1CCC(c2cc3[nH]ccc3cn2)CC1 [Compound 29, 6-(1-((2,3-dihydrobenzofuran-5-yl)sulfonyl)piperidin-4-yl)-1H-pyrrolo[3,2-c]pyridine] | 5.70
O=S(=O)(c1cnc2ccccn12)N1CCC(c2cn3ncnc3cc2Cl)CC1 [Compound 342, 7-chloro-6-(1-(imidazo[1,2-a]pyridin-3-ylsulfonyl)piperidin-4-yl)-[1,2,4]triazolo[1,5-a]pyridine] | 7.82
Cc1cc(S(=O)(=O)N2CCC(c3cn4ncnc4cc3C(F)(F)F)CC2)c(C)s1 [Compound 280, 6-(1-((2,5-dimethylthiophen-3-yl)sulfonyl)piperidin-4-yl)-7-(trifluoromethyl)-[1,2,4]triazolo[1,5-a]pyridine] | 5.72
Cc1cc2nccn2nc1C1CCN(S(=O)(=O)c2cn(C)nc2C)CC1 [Compound 55, 6-(1-((1,3-dimethyl-1H-pyrazol-4-yl)sulfonyl)piperidin-4-yl)-7-methylimidazo[1,2-b]pyridazine] | 5.25

same assay, conditions: CELL LINE hM5; vs EC80 acetylcholine; read-out: IC50

SMILES | pIC50
Cc1cc(S(=O)(=O)N2CCC(c3cn4ncnc4cc3C(F)F)CC2)sn1 [Compound 494, 5-((4-(7-(difluoromethyl)-[1,2,4]triazolo[1,5-a]pyridin-6-yl)piperidin-1-yl)sulfonyl)-3-methylisothiazole] | 7.68
[2H]C1([2H])CC(c2cn3ncnc3cc2Cl)CC([2H])([2H])N1S(=O)(=O)c1cn(C)nn1 [Compound 579, 7-chloro-6-(1-((1-methyl-1H-1,2,3-triazol-4-yl)sulfonyl)piperidin-4-yl-2,2,6,6-d4)-[1,2,4]triazolo[1,5-a]pyridine] | 7.54
Cn1ncc(S(=O)(=O)N2CCC(c3cn4ncnc4cc3F)CC2)c1CC#N [Compound 403, 2-(4-((4-(7-fluoro-[1,2,4]triazolo[1,5-a]pyridin-6-yl)piperidin-1-yl)sulfonyl)-1-methyl-1H-pyrazol-5-yl)acetonitrile] | 5.30
O=S(=O)(c1cnc(Cl)s1)N1CCC(c2cn3ncnc3cc2C(F)(F)F)CC1 [Compound 519, 2-chloro-5-((4-(7-(trifluoromethyl)-[1,2,4]triazolo[1,5-a]pyridin-6-yl)piperidin-1-yl)sulfonyl)thiazole] | 5.80
Cc1cnc2ccccc2c1C1=CCN(S(=O)(=O)c2cnn(C)c2Cl)CC1 [Compound 427, 4-(1-((5-chloro-1-methyl-1H-pyrazol-4-yl)sulfonyl)-1,2,3,6-tetrahydropyridin-4-yl)-3-methylquinoline] | 7.49
CCc1cc2ncnn2cc1C1CCN(S(=O)(=O)c2cnc3sccn23)CC1 [Compound 512, 5-((4-(7-ethyl-[1,2,4]triazolo[1,5-a]pyridin-6-yl)piperidin-1-yl)sulfonyl)imidazo[2,1-b]thiazole] | 6.94
Cc1cc2ncnn2cc1C1CCN(S(=O)(=O)c2cnn(C)c2CNC(=O)c2ccccn2)CC1 [Compound 554, N-((1-Methyl-4-((4-(7-methyl-[1,2,4]triazolol[1,5-a]pyridin-6-yl)piperidin-1-yl)sulfonyl)-1H-pyrazol-5-yl)methyl)picolinamide] | 6.13
Cc1cnccc1C1CCN(S(=O)(=O)c2cnn(C)c2C)CC1 [Compound 431, 4-(1-((1,5-dimethyl-1H-pyrazol-4-yl)sulfonyl)piperidin-4-yl)-3-methylpyridine] | 6.09
Cc1cc(S(=O)(=O)N2CCC(c3cn4ncnc4cc3CCl)CC2)sn1 [Compound 606, 5-((4-(7-(chloromethyl)-[1,2,4]triazolo[1,5-a]pyridin-6-yl)piperidin-1-yl)sulfonyl)-3-methylisothiazole] | 6.90
Cc1cc(S(=O)(=O)N2CCC(c3cn4ncnc4cc3CF)CC2)sn1 [Compound 605, 5-((4-(7-(Fluoromethyl)-[1,2,4]triazolo[1,5-a]pyridin-6-yl)piperidin-1-yl)sulfonyl)-3-methylisothiazole] | 7.59
[2H]C([2H])([2H])Oc1c(S(=O)(=O)N2CCC(c3cn4ncnc4cc3C)CC2)cnn1C [Compound 612, 6-(1-((5-(methoxy-d3)-1-methyl-1H-pyrazol-4-yl)sulfonyl)piperidin-4-yl)-7-methyl-[1,2,4]triazolo[1,5-a]pyridine] | 7.74
Cc1cc2ncccc2cc1C1CCN(S(=O)(=O)c2cnc3n2CCCC3)CC1 [Compound 450, 7-methyl-6-(1-((5,6,7,8-tetrahydroimidazo[1,2-a]pyridin-3-yl)sulfonyl)piperidin-4-yl)quinoline] | 7.41
